Patent publication US11382956B2, “Amylin analogues” (Zealand Pharma A/S, priority 2016, dated 2022)
Numbered stars: 1 amine (or outer) side, 2 acyl side, 3 side chain; on linkers, the order of the positions; unused ones are H or OH. Bridge positions count the residues as written; N and C are the ends. Square brackets hold non-standard residues; d marks the D form. Peptide text beside a SMILES is read from it. * marks the point of attachment. C20 diacid = O=C(O)CCCCCCCCCCCCCCCCCCC(=O)*; γGlu = O=C(O)[C@H](CCC(=O)[*:2])N[*:1]; Hyp = O=C(O)[C@@H]1C[C@@H](O)CN1; NMeI = CC[C@H](C)[C@H](NC)C(=O)O; Orn = NCCC[C@H](N)C(=O)O; Sar = CNCC(=O)O

Key:
[1] = Assessment of physical stability: fibril formation by Thioflavin T fluorescence; type: physicochemical; design: key: FND = fibrillation not detected; FD = fibrillation detected; conditions: 1 mg/mL peptide; for Fibrillation (in buffer) pH4 acetate: 50 mM acetate buffer pH 4.0, 96 hours at 40° C.; for Fibrillation (in buffer) pH7 histidine: 50 mM histidine buffer pH 7.0, 96 hours at 40° C.; for Fibrillation (in buffer) pH7 phosphate: 50 mM phosphate buffer pH 7.0, 96 hours at 40° C.
Experimental: Solutions containing (i) 1 mg/mL of test peptide, 40 μM ThT and 50 mM phosphate (Ph) buffer (pH 7.0), (ii) 1 mg/mL of test peptide, 40 μM ThT and 50 mM histidine (His) buffer (pH 7.0), and (iii) 1 mg/mL of test peptide, 40 μM ThT and 50 mM acetate (Ac) buffer (pH 4.0), were loaded in a 96-well black fluorescence plate (clear bottom) in triplicate. Data were collected at fixed intervals of 10 min, each preceded by 300 s of automixing (agitation), over a period of 96 hours at 40° C. Physical stability is determined by measuring the fluorescence intensity over time. A significant increase in intensity is rated as fibrillation detected (FD).

[2] = target: T1, recombinant human calcitonin receptor (hCT-R) (Homo sapiens, UniProt P30988); experiment: hCT-R cAMP assay (AlphaScreen) in 1321N1 cells; type: cell-based; conditions: cAMP formation, 45 min stimulation
T1 construct: host or cells: human astrocytoma cell line 1321N1
T1 sequence (P30988 25-474): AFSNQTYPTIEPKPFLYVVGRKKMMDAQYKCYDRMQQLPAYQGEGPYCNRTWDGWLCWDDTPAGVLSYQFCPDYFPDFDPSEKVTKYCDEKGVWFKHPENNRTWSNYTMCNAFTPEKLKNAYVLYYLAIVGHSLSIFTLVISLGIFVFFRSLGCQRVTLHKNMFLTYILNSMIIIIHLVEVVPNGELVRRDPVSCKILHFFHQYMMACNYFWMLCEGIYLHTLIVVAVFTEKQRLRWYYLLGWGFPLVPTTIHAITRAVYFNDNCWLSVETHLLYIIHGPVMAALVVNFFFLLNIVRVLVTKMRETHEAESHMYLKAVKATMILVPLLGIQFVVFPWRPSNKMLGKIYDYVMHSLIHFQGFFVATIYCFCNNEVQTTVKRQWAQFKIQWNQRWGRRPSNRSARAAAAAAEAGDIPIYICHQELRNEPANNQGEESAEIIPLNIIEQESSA
Summary of the method: (§1)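 EC50 values come from curve fits over at least 7 peptide concentrations, with cAMP read by AlphaScreen competition after 1 h in the dark. Cells were 1321N1 lines carrying human calcitonin receptor, with RAMP3 co-expressed for AMY3, treated 45 min at room temperature in the presence of IBMX.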

[3] = target: T2, recombinant human amylin 3 receptor (hAMYR3) (Homo sapiens, UniProt O60896+P30988); experiment: hAMYR3 cAMP assay (AlphaScreen) in 1321N1 cells; type: cell-based; conditions: cAMP formation, 45 min stimulation
T2 construct: host or cells: human astrocytoma cell line 1321N1
T2 sequence (P30988 25-474): T1 sequence (P30988 25-474)
T2 sequence (O60896 24-148 partner): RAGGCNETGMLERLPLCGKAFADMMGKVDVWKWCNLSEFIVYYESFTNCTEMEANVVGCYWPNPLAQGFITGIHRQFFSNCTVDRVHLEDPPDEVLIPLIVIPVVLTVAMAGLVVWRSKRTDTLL
Summary of the method: as §1

[4] = Assessment of chemical stability in 40 mM buffers at 40° C. (RP-HPLC); type: physicochemical; conditions: 1 mg/mL
Experimental: Samples of each test peptide were dissolved in acetate buffer pH 4 and phosphate buffer pH 6 and 7 (all buffer 40 mM). The final peptide concentration was 1 mg/mL. Samples were placed in glass vials and incubated at 40° C. The samples were analyzed by RP-HPLC on a C8 column with gradient elution using a trifluoroacetic acid/acetonitrile/water eluent system. The area-percentage (area-%) of the main peak was determined by UV spectroscopy at 220 nm at each sampling time point.
The % degradation was calculated by subtracting the […].
The results of the chemical stability assessment after 3 days of incubation time are summarized as % degradation in Table 1 (below).
The results of the chemical stability assessment after 14 days of incubation time are summarized as % degradation in Table 2 (below).

CC[C@H](C)[C@@H](C(=O)N[C@@H](CC(C)C)C(=O)N[C@@H](CO)C(=O)N[C@@H](CO)C(=O)N[C@H](C(=O)N[C@@H](CCC(=O)O)C(=O)N[C@H](C(=O)NCC(=O)N[C@@H](CO)C(=O)N[C@@H](CC(N)=O)C(=O)N[C@H](C(=O)N1C[C@H](O)C[C@H]1C(N)=O)[C@@H](C)O)C(C)C)[C@@H](C)O)N(C)C(=O)[C@H](C)NC(=O)CN(C)C(=O)[C@H](Cc1ccccc1)NC(=O)[C@H](CO)NC(=O)[C@H](CO)NC(=O)[C@H](CCCNC(=N)N)NC(=O)[C@H](CCC(N)=O)NC(=O)[C@H](CC(C)C)NC(=O)[C@H](Cc1ccccc1)NC(=O)[C@H](Cc1c[nH]cn1)NC(=O)[C@H](C)NC(=O)[C@H](CC(C)C)NC(=O)[C@H](CCCNC(=N)N)NC(=O)[C@H](CCC(N)=O)NC(=O)[C@@H](NC(=O)[C@H](C)NC(=O)[C@@H]1CCCNC(=O)C[C@H](NC(=O)[C@H](CCCNC(=N)N)NC(=O)CC[C@H](NC(=O)CCCCCCCCCCCCCCCCCCC(=O)O)C(=O)O)C(=O)NCC(=O)N[C@@H]([C@@H](C)O)C(=O)N[C@@H](C)C(=O)N[C@@H]([C@@H](C)O)C(=O)N1)[C@@H](C)O [Compound 8, [19CD]-isoGlu-RD()GTAT-Orn()-ATQRLAHFLQRSSF-Gly(Me)-A-Ile(Me)-LSSTEVGSNT-Hyp-NH2] ({C20 diacid-γGlu}-RDGTAT[Orn]ATQRLAHFLQRSSF[Sar]A[NMeI]LSSTEVGSNT[Hyp]-NH2; lactam 2-7)
Fibrillation (in buffer) pH4 acetate [1]: FND
Fibrillation (in buffer) pH7 histidine [1]: FND
Fibrillation (in buffer) pH7 phosphate [1]: FND
EC50 [2]: 0.129 nM
EC50 [3]: 0.059 nM
% degradation after 72 h at 40° C. pH4 acetate ([4]; acetate buffer pH 4, 72 h): <1%
% degradation after 72 h at 40° C. pH6 phosphate ([4]; phosphate buffer pH 6, 72 h): <1%
% degradation after 72 h at 40° C. pH7 phosphate ([4]; phosphate buffer pH 7, 72 h): <1%

CC[C@H](C)[C@@H](C(=O)N[C@@H](CC(C)C)C(=O)N[C@@H](CO)C(=O)N[C@@H](CO)C(=O)N[C@H](C(=O)N[C@@H](CCC(=O)O)C(=O)N[C@H](C(=O)NCC(=O)N[C@@H](CO)C(=O)N[C@@H](CC(N)=O)C(=O)N[C@H](C(=O)N1C[C@H](O)C[C@H]1C(N)=O)[C@@H](C)O)[C@@H](C)O)[C@@H](C)O)N(C)C(=O)[C@H](C)NC(=O)CN(C)C(=O)[C@H](Cc1ccccc1)NC(=O)[C@H](CO)NC(=O)[C@H](CO)NC(=O)[C@H](CCCNC(=N)N)NC(=O)[C@H](CCC(N)=O)NC(=O)[C@H](CC(C)C)NC(=O)[C@H](Cc1ccccc1)NC(=O)[C@H](CC(N)=O)NC(=O)[C@H](C)NC(=O)[C@H](CC(C)C)NC(=O)[C@H](CCCNC(=N)N)NC(=O)[C@H](CCC(N)=O)NC(=O)[C@@H](NC(=O)[C@H](C)NC(=O)[C@@H]1CCCCNC(=O)C[C@H](NC(=O)[C@H](CCCCN)NC(=O)CC[C@H](NC(=O)CCCCCCCCCCCCCCCCCCC(=O)O)C(=O)O)C(=O)NCC(=O)N[C@@H]([C@@H](C)O)C(=O)N[C@@H](C)C(=O)N[C@@H]([C@@H](C)O)C(=O)N1)[C@@H](C)O [Compound 44, [19CD]-isoGlu-KD()GTATK()ATQRLANFLQRSSF-Gly(Me)-A-Ile(Me)-LSSTETGSNT-Hyp-NH2] ({C20 diacid-γGlu}-KDGTATKATQRLANFLQRSSF[Sar]A[NMeI]LSSTETGSNT[Hyp]-NH2; lactam 2-7)
Fibrillation (in buffer) pH4 acetate [1]: FD
Fibrillation (in buffer) pH7 histidine [1]: FND
Fibrillation (in buffer) pH7 phosphate [1]: FND
EC50 [2]: 0.02 nM
EC50 [3]: 0.009 nM
